Data: ChEMBL document CHEMBL5506066, “Potency-Enhanced Peptidomimetic VHL Ligands with Improved Oral Bioavailability” (J Med Chem, 2024)

How the values were obtained:
[1] = biological target: T1, von Hippel-Lindau disease tumor suppressor (Homo sapiens, UniProt P40337); assay: biochemical
Description: Binding affinity to VHL (unknown origin)-NanoLuc fusion protein expressed in HEK293 cells assessed as apparent dissociation constant incubated for 30 mins in presence of digitonin by NanoBRET assay

[2] = biological target: T1, von Hippel-Lindau disease tumor suppressor

T1 sequence (P40337 whole entry): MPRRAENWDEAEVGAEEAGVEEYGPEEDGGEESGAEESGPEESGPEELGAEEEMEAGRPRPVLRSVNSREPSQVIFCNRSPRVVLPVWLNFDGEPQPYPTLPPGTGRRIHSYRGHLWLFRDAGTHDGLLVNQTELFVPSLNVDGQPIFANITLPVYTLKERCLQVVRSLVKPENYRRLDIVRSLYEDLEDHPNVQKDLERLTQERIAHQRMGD

Row | SMILES | Kd [1] [µM] | Kd [2] [µM]
1 | CC(=O)NC1(C(=O)N2C[C@H](O)C[C@H]2C(=O)N[C@H](Cc2ccc(-c3ccccc3)cc2)C(N)=O)CCCCC1 | > 51.8 | > 57.5
2 | NC(=O)[C@@H](Cc1ccc(-c2ccccc2)cc1)NC(=O)[C@@H]1C[C@@H](O)CN1C(=O)Cc1cccnn1 | > 51.8 | > 57.5
3 | Cc1ccc(CC(=O)N2C[C@H](O)C[C@H]2C(=O)N[C@H](Cc2ccc(-c3ccccc3)cc2)C(N)=O)cn1 | > 51.8 | > 57.5
4 | NC(=O)[C@@H](Cc1ccc(-c2ccccc2)cc1)NC(=O)[C@@H]1C[C@@H](O)CN1C(=O)Cc1ccoc1 | > 51.8 | > 57.5
5 | COc1ccccc1-c1ccc(C[C@@H](NC(=O)[C@@H]2C[C@@H](O)CN2C(=O)[C@@H](NC(C)=O)C(C)(C)C)C(N)=O)cc1 | 4.3 | 12.2
6 | NC(=O)[C@@H](Cc1ccc(-c2ccccc2)cc1)NC(=O)[C@@H]1C[C@@H](O)CN1C(=O)[C@H](C1CCC1)n1cc(C2CC2)nn1 | 0.1 | 0.11
7 | CC(=O)N[C@H](C(=O)N1C[C@H](O)C[C@H]1C(=O)N[C@H](Cc1ccc(-c2ccccc2)cc1)C(N)=O)C1CCN(C(C)=O)CC1 | 2.7 | > 57.5
8 | CC[C@H](C)[C@@H](C(=O)N1C[C@H](O)C[C@H]1C(=O)N[C@H](Cc1ccc(-c2ccccc2)cc1)C(N)=O)n1cc(C2CC2)nn1 | 0.087 | 0.074
9 | NC(=O)[C@@H](Cc1ccc(-c2ccccc2)cc1)NC(=O)[C@@H]1C[C@@H](O)CN1C(=O)Cn1ccnn1 | > 51.8 | > 57.5
10 | Cc1ncc(CC(=O)N2C[C@H](O)C[C@H]2C(=O)N[C@H](Cc2ccc(-c3ccccc3)cc2)C(N)=O)s1 | > 51.8 | > 57.5
11 | NC(=O)[C@@H](Cc1ccc(-c2ccccc2)cc1)NC(=O)[C@@H]1C[C@@H](O)CN1C(=O)[C@@H](n1cc(C2CC2)nn1)C12CC3CC(CC(C3)C1)C2 | 0.083 | 0.067
12 | CC(=O)N[C@H](C(=O)N1C[C@H](O)C[C@H]1C(=O)N[C@H](C(N)=O)c1ccc(-c2scnc2C)cc1)C(C)(C)C | 2.15 | 14
13 | CC(=O)N[C@H](C(=O)N1C[C@H](O)C[C@H]1C(=O)N[C@H](Cc1ccc(C)cc1)C(N)=O)C(C)(C)C | > 51.8 | > 57.5
14 | CC(=O)N[C@H](C(=O)N1C[C@H](O)C[C@H]1C(=O)N[C@@H](C(N)=O)c1ccc(-c2scnc2C)cc1)C(C)(C)C | 0.21 | 1.99
15 | CC(=O)NC1(C(=O)N2C[C@H](O)C[C@H]2C(=O)N[C@H](Cc2ccc(-c3ccccc3)cc2)C(N)=O)CCC1 | > 51.8 | > 57.5
16 | CC(=O)N[C@H](C(=O)N1C[C@H](O)C[C@H]1C(=O)N[C@H](Cc1ccc(C#N)cc1)C(N)=O)C(C)(C)C | 9 | > 57.5
17 | CC(=O)N[C@H](C(=O)N1C[C@H](O)C[C@H]1C(=O)N[C@H](Cc1ccc(-c2cccc(Cl)n2)cc1)C(N)=O)C(C)(C)C | 4.2 | > 57.5
18 | CC(=O)N[C@H](C(=O)N1C[C@H](O)C[C@H]1C(=O)N[C@H](Cc1ccc(-c2ccccc2)cc1)C(N)=O)C1CCNCC1 | 11.5 | > 57.5
19 | Cc1ncsc1-c1ccc([C@H](C)NC(=O)[C@@H]2C[C@@H](O)CN2C(=O)[C@@H](n2cc(C3CC3)nn2)C(C)(C)C)cc1 | 0.0039 | 0.0033

Row | SMILES | Kd [1] [µM] | Kd [2] [µM]
20 | CC(=O)N1CCC[C@H]1C(=O)N1C[C@H](O)C[C@H]1C(=O)N[C@H](Cc1ccc(-c2ccccc2)cc1)C(N)=O | 12.7 | > 57.5
21 | COc1ccc(-c2ccc(C[C@@H](NC(=O)[C@@H]3C[C@@H](O)CN3C(=O)[C@@H](NC(C)=O)C(C)(C)C)C(N)=O)cc2)cc1F | 21.2 | > 57.5
22 | COc1ccc(-c2ccc(C[C@@H](NC(=O)[C@@H]3C[C@@H](O)CN3C(=O)[C@@H](NC(C)=O)C(C)(C)C)C(N)=O)cc2)cc1 | 30.9 | > 57.5
23 | Cc1cc(C2(C(=O)N3C[C@H](O)C[C@H]3C(=O)N[C@H](Cc3ccc(-c4ccccc4)cc3)C(N)=O)CC2)on1 | > 51.8 | > 57.5
24 | NC(=O)[C@@H](Cc1ccc(-c2ccccc2)cc1)NC(=O)[C@@H]1C[C@@H](O)CN1C(=O)Cc1cnco1 | > 51.8 | > 57.5
25 | NC(=O)[C@@H](Cc1ccc(-c2ccccc2)cc1)NC(=O)[C@@H]1C[C@@H](O)CN1C(=O)Cc1cncs1 | > 51.8 | > 57.5
26 | CC(=O)N[C@H](C(=O)N1C[C@H](O)C[C@H]1C(=O)N[C@H](Cc1ccc(-c2ccccc2)cc1)C(N)=O)C1CCOCC1 | 2.9 | 17.8
27 | NC(=O)[C@@H](Cc1ccc(-c2ccccc2)cc1)NC(=O)[C@@H]1C[C@@H](O)CN1C(=O)Cc1cccnc1 | > 51.8 | > 57.5
28 | CC(=O)N[C@@H](Cc1ccccc1)C(=O)N1C[C@H](O)C[C@H]1C(=O)N[C@H](Cc1ccc(-c2ccccc2)cc1)C(N)=O | 18.1 | > 57.5
29 | Cc1ncsc1-c1ccc(CNC(=O)[C@@H]2C[C@@H](O)CN2C(=O)[C@@H](n2cc(C3CC3)nn2)C(C)(C)C)cc1 | 0.0065 | 0.0063
30 | CC(=O)NC(C(=O)N1C[C@H](O)C[C@H]1C(=O)N[C@H](Cc1ccc(-c2ccccc2)cc1)C(N)=O)C12CC(C(F)(F)F)(C1)C2 (stereo partly drawn) | 2.4 | 6.6
31 | CC(=O)N[C@H](C(=O)N1C[C@H](O)C[C@H]1C(=O)N[C@H](Cc1ccc(I)cc1)C(N)=O)C(C)(C)C | 2.6 | 6.1
32 | CC(=O)N[C@H](C(=O)N1C[C@H](O)C[C@H]1C(=O)N[C@H](Cc1ccc(-c2ccc(F)c(Cl)c2)cc1)C(N)=O)C(C)(C)C | 3.5 | 11
33 | CC(=O)N[C@H](C(=O)N1C[C@H](O)C[C@H]1C(=O)N[C@H](Cc1ccc(-c2ccc(F)cc2)cc1)C(N)=O)C(C)(C)C | 2.1 | 11.8
34 | CC(=O)N[C@H](C(=O)N1C[C@H](O)C[C@H]1C(=O)N[C@H](Cc1ccc(-c2ccccc2)cc1)C(N)=O)C(c1ccccc1)c1ccccc1 | 47 | > 57.5
35 | CC(=O)N[C@H](C(=O)N1C[C@H](O)C[C@H]1C(=O)N[C@H](Cc1ccc(-c2ccccc2)cc1)C(N)=O)C12CC3CC(CC(C3)C1)C2 | 0.41 | 0.68
36 | CC(=O)N[C@H](C(=O)N1C[C@H](O)C[C@H]1C(=O)NC(C(N)=O)c1ccc(-c2scnc2C)cc1)C(C)(C)C (mixture of isomers) | 0.5 | 5.17
37 | CC(=O)N[C@@H](Cc1cscn1)C(=O)N1C[C@H](O)C[C@H]1C(=O)N[C@H](Cc1ccc(-c2ccccc2)cc1)C(N)=O | 14.2 | > 57.5

Other lines, results leading:

Row | Kd [1] [µM] | Kd [2] [µM] | SMILES
38 | 1.8 | 5.5 | CC(=O)N[C@H](C(=O)N1C[C@H](O)C[C@H]1C(=O)N[C@H](Cc1ccc(-c2ccccc2Cl)cc1)C(N)=O)C(C)(C)C
39 | 0.069 | 0.059 | CCC(C)(C)[C@@H](C(=O)N1C[C@H](O)C[C@H]1C(=O)N[C@H](Cc1ccc(-c2ccccc2)cc1)C(N)=O)n1cc(C2CC2)nn1
40 | 2.7 | 45.2 | CC(=O)N[C@H](C(=O)N1C[C@H](O)C[C@H]1C(=O)N[C@H](Cc1ccc(-c2cccnc2)cc1)C(N)=O)C(C)(C)C
41 | 48 | 57.5 | CC(=O)N1CC[C@H]1C(=O)N1C[C@H](O)C[C@H]1C(=O)N[C@H](Cc1ccc(-c2ccccc2)cc1)C(N)=O
42 | 18.6 | 25.4 | Cc1cnn([C@H](C(=O)N2C[C@H](O)C[C@H]2C(=O)N[C@H](Cc2ccc(-c3ccccc3)cc2)C(N)=O)C(C)C)c1
43 | > 51.8 | > 57.5 | Cc1cn(CC(=O)N2C[C@H](O)C[C@H]2C(=O)N[C@H](Cc2ccc(-c3ccccc3)cc2)C(N)=O)nn1
44 | 18.6 | 46.5 | CSC[C@H](NC(C)=O)C(=O)N1C[C@H](O)C[C@H]1C(=O)N[C@H](Cc1ccc(-c2ccccc2)cc1)C(N)=O
45 | 45.7 | > 57.5 | CC(C)[C@@H](C(=O)N1C[C@H](O)C[C@H]1C(=O)N[C@H](Cc1ccc(-c2ccccc2)cc1)C(N)=O)c1cnn(C)c1
46 | 32.1 | 24.7 | CC(C)[C@@H](C(=O)N1C[C@H](O)C[C@H]1C(=O)N[C@H](Cc1ccc(-c2ccccc2)cc1)C(N)=O)c1cccnc1
47 | > 51.8 | > 57.5 | CC(=O)N[C@@]1(C(=O)N2C[C@H](O)C[C@H]2C(=O)N[C@H](Cc2ccc(-c3ccccc3)cc2)C(N)=O)CC1(C)C
48 | 48.5 | > 57.5 | Cc1cn([C@H](C(=O)N2C[C@H](O)C[C@H]2C(=O)N[C@H](Cc2ccc(-c3ccccc3)cc2)C(N)=O)C(C)C)cn1
49 | 0.084 | 0.063 | C=CC(C)(C)[C@@H](C(=O)N1C[C@H](O)C[C@H]1C(=O)N[C@H](Cc1ccc(-c2ccccc2)cc1)C(N)=O)n1cc(C2CC2)nn1
50 | > 51.8 | > 57.5 | Cc1noc(CC(=O)N2C[C@H](O)C[C@H]2C(=O)N[C@H](Cc2ccc(-c3ccccc3)cc2)C(N)=O)n1
51 | > 51.8 | > 57.5 | CC(=O)NCC(=O)N1C[C@H](O)C[C@H]1C(=O)N[C@H](Cc1ccc(-c2ccccc2)cc1)C(N)=O
52 | 17.3 | > 57.5 | CC(=O)N[C@@H](CCCN)C(=O)N1C[C@H](O)C[C@H]1C(=O)N[C@H](Cc1ccc(-c2ccccc2)cc1)C(N)=O
53 | 2.7 | 4.4 | CC(=O)N[C@H](C(=O)N1C[C@H](O)C[C@H]1C(=O)N[C@H](Cc1ccc(-c2ccccc2F)cc1)C(N)=O)C(C)(C)C
54 | 12.9 | 31.1 | CC(=O)N[C@@H](CC1CC1)C(=O)N1C[C@H](O)C[C@H]1C(=O)N[C@H](Cc1ccc(-c2ccccc2)cc1)C(N)=O
55 | 24.4 | 46.9 | Cc1cc(CC(=O)N2C[C@H](O)C[C@H]2C(=O)N[C@H](Cc2ccc(-c3ccccc3)cc2)C(N)=O)on1
56 | 3.1 | 4.6 | CC(=O)N[C@H](C(=O)N1C[C@H](O)C[C@H]1C(=O)N[C@H](Cc1ccc(-c2ccccc2)cc1)C(N)=O)C(C)(C)c1ccccc1
57 | > 51.8 | > 57.5 | CC(=O)NC(C)(C)C(=O)N1C[C@H](O)C[C@H]1C(=O)N[C@H](Cc1ccc(-c2ccccc2)cc1)C(N)=O
58 | 0.21 | 1.9 | CC(C)(C)[C@@H](C(=O)N1C[C@H](O)C[C@H]1C(=O)N[C@H](Cc1ccc(-c2ccccc2)cc1)C(N)=O)n1cc(C(N)=O)nn1
59 | 23.9 | 35 | CC(C)(C)[C@H](N=[N+]=[N-])C(=O)N1C[C@H](O)C[C@H]1C(=O)N[C@H](Cc1ccc(-c2ccccc2)cc1)C(N)=O
